Reference: the NIST ThermoML archive (doi:10.1016/j.jct.2007.08.002)
Numbers after ± are expanded uncertainties.

Experiment: molar heat capacity at saturation pressure
Settings: Crystal 3, Small (less than 1 g) adiabatic calorimetry

NC12CC3CC(CC(C3)C1)C2 [tricyclo(3.3.1.1:3,7)decan-1-amine]
molar heat capacity (5.371 K): 0.5825 ± 0.031 J/K/mol | molar heat capacity (5.674 K): 0.6834 ± 0.033 J/K/mol | molar heat capacity (5.933 K): 0.7778 ± 0.035 J/K/mol | molar heat capacity (6.225 K): 0.9013 ± 0.037 J/K/mol | molar heat capacity (6.555 K): 1.05 ± 0.039 J/K/mol | molar heat capacity (6.892 K): 1.221 ± 0.042 J/K/mol | molar heat capacity (7.234 K): 1.413 ± 0.046 J/K/mol | molar heat capacity (7.582 K): 1.615 ± 0.049 J/K/mol | molar heat capacity (7.934 K): 1.847 ± 0.053 J/K/mol | molar heat capacity (8.29 K): 2.095 ± 0.057 J/K/mol | molar heat capacity (8.65 K): 2.364 ± 0.061 J/K/mol | molar heat capacity (9.012 K): 2.653 ± 0.066 J/K/mol | molar heat capacity (9.378 K): 2.953 ± 0.07 J/K/mol | molar heat capacity (9.748 K): 3.269 ± 0.075 J/K/mol | molar heat capacity (10.12 K): 3.61 ± 0.08 J/K/mol | molar heat capacity (10.59 K): 4.072 ± 0.086 J/K/mol | molar heat capacity (11.18 K): 4.667 ± 0.095 J/K/mol | molar heat capacity (11.76 K): 5.291 ± 0.1 J/K/mol | molar heat capacity (12.35 K): 5.952 ± 0.11 J/K/mol | molar heat capacity (12.95 K): 6.634 ± 0.12 J/K/mol | molar heat capacity (13.55 K): 7.353 ± 0.13 J/K/mol | molar heat capacity (14.16 K): 8.092 ± 0.14 J/K/mol | molar heat capacity (14.78 K): 8.863 ± 0.15 J/K/mol | molar heat capacity (15.5 K): 9.794 ± 0.16 J/K/mol | molar heat capacity (16.34 K): 10.89 ± 0.17 J/K/mol | molar heat capacity (17.18 K): 12.01 ± 0.18 J/K/mol | molar heat capacity (18.02 K): 13.1 ± 0.19 J/K/mol | molar heat capacity (18.87 K): 14.19 ± 0.2 J/K/mol | molar heat capacity (19.72 K): 15.29 ± 0.21 J/K/mol | molar heat capacity (20.86 K): 16.74 ± 0.22 J/K/mol | molar heat capacity (22.27 K): 18.51 ± 0.22 J/K/mol | molar heat capacity (23.71 K): 20.25 ± 0.23 J/K/mol | molar heat capacity (25.14 K): 21.91 ± 0.24 J/K/mol | molar heat capacity (26.57 K): 23.5 ± 0.24 J/K/mol | molar heat capacity (28.24 K): 25.24 ± 0.24 J/K/mol | molar heat capacity (29.96 K): 26.91 ± 0.23 J/K/mol | molar heat capacity (31.58 K): 28.39 ± 0.24 J/K/mol | molar heat capacity (33.36 K): 29.89 ± 0.25 J/K/mol | molar heat capacity (35.14 K): 31.32 ± 0.26 J/K/mol | molar heat capacity (36.93 K): 32.63 ± 0.27 J/K/mol | molar heat capacity (38.72 K): 33.88 ± 0.27 J/K/mol | molar heat capacity (40.51 K): 35.04 ± 0.27 J/K/mol | molar heat capacity (42.4 K): 36.18 ± 0.28 J/K/mol | molar heat capacity (44.38 K): 37.34 ± 0.29 J/K/mol | molar heat capacity (46.37 K): 38.43 ± 0.29 J/K/mol | molar heat capacity (48.36 K): 39.47 ± 0.3 J/K/mol | molar heat capacity (50.35 K): 40.45 ± 0.3 J/K/mol | molar heat capacity (52.35 K): 41.44 ± 0.31 J/K/mol | molar heat capacity (54.34 K): 42.38 ± 0.32 J/K/mol | molar heat capacity (56.34 K): 43.3 ± 0.32 J/K/mol | molar heat capacity (58.35 K): 44.2 ± 0.32 J/K/mol | molar heat capacity (60.36 K): 45.16 ± 0.32 J/K/mol | molar heat capacity (62.36 K): 46.1 ± 0.33 J/K/mol | molar heat capacity (64.37 K): 46.99 ± 0.33 J/K/mol | molar heat capacity (66.38 K): 47.92 ± 0.34 J/K/mol | molar heat capacity (68.39 K): 48.83 ± 0.34 J/K/mol | molar heat capacity (70.41 K): 49.75 ± 0.35 J/K/mol | molar heat capacity (72.42 K): 50.71 ± 0.36 J/K/mol | molar heat capacity (74.44 K): 51.65 ± 0.36 J/K/mol | molar heat capacity (76.46 K): 52.68 ± 0.37 J/K/mol | molar heat capacity (78.49 K): 53.68 ± 0.37 J/K/mol | molar heat capacity (78.62 K): 53.84 ± 0.37 J/K/mol | molar heat capacity (80.52 K): 54.78 ± 0.37 J/K/mol | molar heat capacity (80.69 K): 54.93 ± 0.37 J/K/mol | molar heat capacity (82.5 K): 55.83 ± 0.38 J/K/mol | molar heat capacity (82.55 K): 55.82 ± 0.38 J/K/mol | molar heat capacity (84.31 K): 56.77 ± 0.38 J/K/mol | molar heat capacity (84.59 K): 56.97 ± 0.38 J/K/mol | molar heat capacity (86.12 K): 57.74 ± 0.39 J/K/mol | molar heat capacity (88.91 K): 59.25 ± 0.4 J/K/mol | molar heat capacity (91 K): 60.41 ± 0.44 J/K/mol | molar heat capacity (92.82 K): 61.47 ± 0.45 J/K/mol | molar heat capacity (94.65 K): 62.47 ± 0.45 J/K/mol | molar heat capacity (96.48 K): 63.45 ± 0.46 J/K/mol | molar heat capacity (98.3 K): 64.46 ± 0.46 J/K/mol | molar heat capacity (100.14 K): 65.47 ± 0.47 J/K/mol | molar heat capacity (101.97 K): 66.49 ± 0.47 J/K/mol | molar heat capacity (103.81 K): 67.54 ± 0.47 J/K/mol | molar heat capacity (105.65 K): 68.56 ± 0.47 J/K/mol | molar heat capacity (107.49 K): 69.56 ± 0.48 J/K/mol | molar heat capacity (109.33 K): 70.65 ± 0.48 J/K/mol | molar heat capacity (111.18 K): 71.75 ± 0.49 J/K/mol | molar heat capacity (113.03 K): 72.83 ± 0.49 J/K/mol | molar heat capacity (114.88 K): 73.92 ± 0.5 J/K/mol | molar heat capacity (116.73 K): 75.05 ± 0.5 J/K/mol | molar heat capacity (118.59 K): 76.14 ± 0.51 J/K/mol | molar heat capacity (120.45 K): 77.29 ± 0.51 J/K/mol | molar heat capacity (122.31 K): 78.44 ± 0.52 J/K/mol | molar heat capacity (124.17 K): 79.61 ± 0.52 J/K/mol | molar heat capacity (126.03 K): 80.8 ± 0.52 J/K/mol | molar heat capacity (127.9 K): 82.02 ± 0.53 J/K/mol | molar heat capacity (129.77 K): 83.23 ± 0.5 J/K/mol | molar heat capacity (131.64 K): 84.39 ± 0.5 J/K/mol | molar heat capacity (133.51 K): 85.64 ± 0.58 J/K/mol | molar heat capacity (135.38 K): 86.8 ± 0.58 J/K/mol | molar heat capacity (137.26 K): 88.05 ± 0.58 J/K/mol | molar heat capacity (139.13 K): 89.21 ± 0.58 J/K/mol | molar heat capacity (141.01 K): 90.54 ± 0.58 J/K/mol | molar heat capacity (142.89 K): 91.79 ± 0.58 J/K/mol | molar heat capacity (144.78 K): 93.04 ± 0.58 J/K/mol | molar heat capacity (146.66 K): 94.37 ± 0.58 J/K/mol | molar heat capacity (148.56 K): 95.62 ± 0.58 J/K/mol | molar heat capacity (150.44 K): 96.95 ± 0.58 J/K/mol | molar heat capacity (150.6 K): 97.03 ± 0.58 J/K/mol | molar heat capacity (152.33 K): 98.28 ± 0.58 J/K/mol | molar heat capacity (153.55 K): 99.11 ± 0.58 J/K/mol | molar heat capacity (154.22 K): 99.61 ± 0.58 J/K/mol | molar heat capacity (156.12 K): 100.94 ± 0.58 J/K/mol | molar heat capacity (156.34 K): 101.19 ± 0.58 J/K/mol | molar heat capacity (158.01 K): 102.27 ± 0.58 J/K/mol | molar heat capacity (159.13 K): 103.18 ± 0.58 J/K/mol | molar heat capacity (159.9 K): 103.68 ± 0.58 J/K/mol | molar heat capacity (161.8 K): 105.09 ± 0.58 J/K/mol | molar heat capacity (161.91 K): 105.26 ± 0.58 J/K/mol | molar heat capacity (163.69 K): 106.59 ± 0.67 J/K/mol | molar heat capacity (164.48 K): 107.17 ± 0.67 J/K/mol | molar heat capacity (165.59 K): 108 ± 0.67 J/K/mol | molar heat capacity (166.66 K): 108.92 ± 0.67 J/K/mol | molar heat capacity (167.48 K): 109.5 ± 0.67 J/K/mol | molar heat capacity (168.73 K): 110.58 ± 0.67 J/K/mol | molar heat capacity (169.38 K): 111 ± 0.67 J/K/mol | molar heat capacity (170.79 K): 112.25 ± 0.67 J/K/mol | molar heat capacity (171.28 K): 112.58 ± 0.67 J/K/mol | molar heat capacity (172.85 K): 113.91 ± 0.67 J/K/mol | molar heat capacity (173.18 K): 114.16 ± 0.67 J/K/mol | molar heat capacity (174.91 K): 115.65 ± 0.67 J/K/mol | molar heat capacity (175.08 K): 115.74 ± 0.67 J/K/mol | molar heat capacity (176.96 K): 117.4 ± 0.67 J/K/mol | molar heat capacity (176.98 K): 117.32 ± 0.67 J/K/mol | molar heat capacity (178.89 K): 119.06 ± 0.67 J/K/mol | molar heat capacity (179.01 K): 119.23 ± 0.67 J/K/mol | molar heat capacity (180.8 K): 120.73 ± 0.67 J/K/mol | molar heat capacity (181.05 K): 120.98 ± 0.67 J/K/mol | molar heat capacity (182.71 K): 122.39 ± 0.67 J/K/mol | molar heat capacity (183.09 K): 122.8 ± 0.67 J/K/mol | molar heat capacity (184.61 K): 124.05 ± 0.67 J/K/mol | molar heat capacity (185.12 K): 124.63 ± 0.67 J/K/mol | molar heat capacity (186.52 K): 125.8 ± 0.67 J/K/mol | molar heat capacity (187.15 K): 126.46 ± 0.75 J/K/mol | molar heat capacity (188.43 K): 127.63 ± 0.75 J/K/mol | molar heat capacity (189.18 K): 128.38 ± 0.75 J/K/mol | molar heat capacity (190.33 K): 129.46 ± 0.75 J/K/mol | molar heat capacity (191.2 K): 130.37 ± 0.75 J/K/mol | molar heat capacity (192.24 K): 131.37 ± 0.75 J/K/mol | molar heat capacity (193.21 K): 132.53 ± 0.75 J/K/mol | molar heat capacity (194.15 K): 133.36 ± 0.75 J/K/mol | molar heat capacity (195.22 K): 134.61 ± 0.75 J/K/mol
